The source of these data is publication PMC11591188, “First Report on Cationic Triphenylphosphonium Compounds as Mitochondriotropic H3R Ligands with Antioxidant Properties” (Antioxidants, 2024).

Where “and” joins values, the source holds several entries; their conditions need not be identical. Equal values may be shown once. Read-outs that look alike come from different tables or passages of the source. Where only a bound is given, the exact number is not on record here.

The target in data set [1] is T1, hH3R (Homo sapiens, UniProt Q9Y5N1).
T1 construct: expressed in transfected cells; host or cells: HEK-293 cells stably expressing hH3R
Description: hH3R radioligand displacement assay ([3H]Nα-methylhistamine, HEK-293-hH3R membranes). It is filed as binding. The procedure: Radioligand displacement assays were performed on the membrane fractions of HEK-293 cells stably expressing hH3R455, which occurs mainly in the brain, as described previously with slight modifications. HEK-293-hH3R cells were grown in Dulbecco’s Modified Eagle Medium (DMEM) supplemented with 10% FBS, 100 µg/mL penicillin, 100 units/mL streptomycin, and 10 mM HEPES solution at 37 °C in a humidified atmosphere of 5% CO2. To prepare membrane fractions, cells were washed in a phosphate-buffered saline (PBS) solution and harvested. The cells were centrifuged at 3000× g for 10 min at 4 °C and homogenized with Ultraturrax® in ice-cold binding buffer (75 mM Tris-HCl, 10 mM MgCl2, 100 mM NaCl, pH 7.4). The homogenate was centrifuged twice (20,000× g, 20 min, 4 °C) and reconstituted in an ice-cold binding buffer. Test ligands, radiolabeled ligands, and membrane fractions (20 µg/well) were added to 96-well plates to a final assay volume of 200 µL. After 90 min of incubation with shaking at 25 °C, a cell harvester was used to separate bound from free ligands by filtration through GF/B filters pretreated with 0.3% (m/v) polyethylenimine. Radioactivity was determined by liquid scintillation counting. […] The test ligands were evaluated at concentrations between 100 µM and 0.03 nM. […] Specific binding was calculated by subtracting non-specific binding from the raw data. Data were obtained in duplicate from at least three independent experiments and analyzed using GraphPad Prism 7.02. using a nonlinear regression. The Cheng–Prusoff equation was used to calculate Ki values from the IC50 values. Mean values and 95% confidence intervals were calculated using −log(Ki) and converted to nanomolar concentrations.
S4. hH3R Radioligand Displacement Assay
Radioligand displacement assays were performed on the membrane fractions of HEK-293 cells stably expressing hH3R. Cultivation of hH3R-HEK-293 cells and membrane preparation was performed as described previously. [3H]Nα-Methylhistamine was used as the radiolabeled probe at a final […]
-log(Ki) was used to calculate mean values and 95% confidence intervals.
Figure S13. hH3R competition binding curve of compounds 6a
Figure S14. hH3R competition binding curve of compounds 6b […]

Data set [2] can be described thus: Oxygen radical absorbance capacity (ORAC-FL) assay. The following applies: mean Trolox equivalents with SEM, at least three independent experiments, 37 °C. The procedure:
Antioxidant properties were analyzed using an oxygen radical absorbance capacity (ORAC) assay at 37 °C [27]. Solutions of the fluorescent probe fluorescein at 100 nM and test ligands at concentrations between 20 µM and 6.25 µM were incubated for 15 min in potassium phosphate buffer (75 mM, pH 7.4) protected from light in black 96-well plates at 37 °C. Then, 2,2′-azobis (2-amidinopropane) dihydrochloride (AAPH) was added as a peroxyl radical generator. The fluorescence intensity ([…]) was measured every minute for 90 min. 6-Hydroxy-2,5,7,8-tetramethylchroman-2-carboxylic acid (Trolox) was used as a standard at concentrations between 20 µM and 6.25 µM. Data were obtained in duplicate from at least three independent experiments and evaluated using GraphPad Prism 7.02. Fluorescence intensity was normalized to that of the blank (without AAPH). The area under the fluorescence decay curve for each antioxidant (AUCantioxidant) and for the negative control without antioxidants (AUCnegative control) were calculated for each concentration by summing the fluorescence intensities at each time point. AUCnegative control was subtracted from the AUCantioxidant to calculate the net AUC. Linear regression of the net AUC against the corresponding antioxidant concentration was performed. The ratios of the antioxidant and Trolox slopes from the same experiment were calculated. Thus, ORAC values were expressed as Trolox equivalents [TE], and caffeic acid was used as a reference.

Data set [3] can be described thus: Cytotoxic effects on SH-SY5Y cells after 24 h (alamar blue viability assay). It is filed as cell-based. To be noted: human, SH-SY5Y neuroblastoma cells, 24 h, 95% confidence interval, at least three independent experiments, read-out: LC50. As to the method: (§1) The cytotoxic effects of the tested ligands on neuroblastoma SH-SY5Y cells were determined using the alamar blue viability assay. SH-SY5Y cells were grown in Minimum Essential Medium Eagle (MEME) supplemented with non-essential amino acids, 10% FBS, 100 µg/mL penicillin, 100 units/mL streptomycin, and 2 mM L-glutamine at 37 °C in a humidified atmosphere of 5% CO2. SH-SY5Y cells were seeded in 96-well plates at a density of 8.0 × 10^3 cells per well and grown at 37 °C in a humidified atmosphere of 5% CO2. 24 h after seeding, the test ligands were added at concentrations between 30 µM and 1 nM in a final assay volume of 100 µL per well and incubated for 24 h. Cells treated with 1-methyl-4-phenylpyridinium iodide (MPP+) served as a positive control for cytotoxic effects. The concentration of DMSO was limited to 1% for all the assay points. The medium supplemented with the test compounds was discarded, and 100 µL of resazurin solution in RPMI-1640 medium (44 µM) was added. After two hours of incubation at 37 °C in a humidified atmosphere of 5% CO2, fluorescence intensity ([…]) was determined. Data were obtained in duplicate from at least three independent experiments. LC50 values were evaluated using GraphPad Prism 7.02. using a nonlinear regression. Mean values and 95% confidence intervals were calculated using −log(Ki) and converted to nanomolar concentrations.
(In general: The colour change of resazurin is a common sign of viable cells or microbes.)

Data set [4] concerns SH-SY5Y cells. Described as above. It is filed as cell-based. The following applies: for effects on cell viability: concentrations below 1 µM. As to the method: as §1
The target in data set [5] is T1, hH3R. To be noted: cited from earlier work.
Where [6] appears, read: Table 2, from Ki, read-out: pKi (converted).
Where [7] appears, read: [3H]Nα-methylhistamine displacement on HEK-293-hH3R membranes, 95% confidence interval, at least three independent experiments, read-out: hH3R Ki.

T1 sequence (Q9Y5N1 whole entry): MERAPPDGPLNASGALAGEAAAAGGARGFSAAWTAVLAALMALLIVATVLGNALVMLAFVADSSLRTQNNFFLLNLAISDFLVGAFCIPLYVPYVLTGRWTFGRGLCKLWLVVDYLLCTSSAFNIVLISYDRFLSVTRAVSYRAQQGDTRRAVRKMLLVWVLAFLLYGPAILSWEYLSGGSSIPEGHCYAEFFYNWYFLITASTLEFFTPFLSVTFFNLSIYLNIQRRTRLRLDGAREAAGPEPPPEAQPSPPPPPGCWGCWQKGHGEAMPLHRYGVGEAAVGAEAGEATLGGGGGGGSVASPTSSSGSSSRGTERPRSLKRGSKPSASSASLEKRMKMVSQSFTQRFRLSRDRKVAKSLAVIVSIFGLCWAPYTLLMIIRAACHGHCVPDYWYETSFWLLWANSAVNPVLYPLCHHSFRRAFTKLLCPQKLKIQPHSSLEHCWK

`CNCCc1cnc[nH]1` [[^3H]N^α-methylhistamine, reference compound]: in data set [1] (probe used at a final concentration of 2 nM, read-out: Kd of the radiolabeled probe), the dissociation constant (Kd) – broadly, the constant that tells how readily two partners part at equilibrium – was 3.08 nM.
Turning to `c1ccc([P+](CCCCCCCCCOc2ccc(OCCCN3CCCCC3)cc2)(c2ccccc2)c2ccccc2)cc1` [Compound 6e, Triphenyltriphenyl-(9-(4-(3-(piperidin-1-yl)propoxy)phenoxy)nonyl)phosphonium bromide], the Ki in data set [1] (setting [6]) and in data set [1] (setting [7]) was 14.1 nM each time. Also, the ORAC in data set [2] is 1.07 ± 0.06 TE. Also, the CC50 at 24 h in data set [3] is below 1000 nM. In data set [4] (24 h, 95% confidence interval, at least three independent experiments, read-out: LC50 (the source's name)), the CC50 stood at 910 nM.
As for `c1ccc([P+](CCCCCCCCOc2ccc(OCCCN3CCCCC3)cc2)(c2ccccc2)c2ccccc2)cc1` [Compound 6d, Triphenyltriphenyl-(8-(4-(3-(piperidin-1-yl)propoxy)phenoxy)octyl)phosphonium bromide], the Ki in data set [1] (setting [6]) and in data set [1] (setting [7]) was 20.4 nM in each case. Also, in data set [2], the ORAC was 0.89 ± 0.16 TE. For the same molecule, the CC50 at 24 h in data set [3] came to 2690 nM.
With `O=C(O)/C=C/c1ccc(O)c(O)c1` [Caffeic acid, reference compound], in data set [2], the ORAC was found to be 3.08 ± 0.13 TE.
For `CN1CCc2ccc(OCCCN3CCCCC3)cc2C1=O` [Compound I], in data set [5] (Figure 1, read-out: hH3R Ki), the Ki was 23 nM.
On to `[Br-].c1ccc([P+](CCCCCOc2ccc(OCCCN3CCCCC3)cc2)(c2ccccc2)c2ccccc2)cc1` [Compound 6b, Triphenyl-(5-(4-(3-(piperidin-1-yl)propoxy)phenoxy)pentyl)phosphonium bromide], for which the Ki in data set [1] (setting [6]) and in data set [1] (setting [7]) was 17.6 nM throughout. Besides, the ORAC in data set [2] is given as 0.70 ± 0.01 TE. Also, the CC50 at 24 h in data set [3] was determined as 21800 nM. For the same molecule, the “effects on cell viability” value in data set [4] is listed as “no significant effects on cell viability”.
With `c1ccc([P+](CCCCCCOc2ccc(OCCCN3CCCCC3)cc2)(c2ccccc2)c2ccccc2)cc1` [Compound 6c, Triphenyltriphenyl-(6-(4-(3-(piperidin-1-yl)propoxy)phenoxy)hexyl)phosphonium bromide], the Ki in data set [1] (setting [6]) and in data set [1] (setting [7]) was 31.5 nM in each case. Moreover, the ORAC in data set [2] is 0.54 TE and 0.54 ± 0.03 TE. The CC50 at 24 h in data set [3] was 11200 nM.
Turning to `c1ccc([P+](CCCCCCCCCCOc2ccc(OCCCN3CCCCC3)cc2)(c2ccccc2)c2ccccc2)cc1` [Compound 6f, Triphenyltriphenyl-(10-(4-(3-(piperidin-1-yl)propoxy)phenoxy)decyl)phosphonium bromide], the Ki in data set [1] (Table 2, biological activity repeated next to the IFD results, read-out: Ki) is 67.4 nM; in data set [1] (setting [7]), 67.4 nM. In addition, the ORAC in data set [2] was 0.59 ± 0.06 TE. In data set [3], the CC50 at 24 h was found to be 2610 nM.
With `c1ccc([P+](CCCCOc2ccc(OCCCN3CCCCC3)cc2)(c2ccccc2)c2ccccc2)cc1` [Compound 6a], the Ki in data set [1] (setting [6]) and in data set [1] (setting [7]) was 32 nM in each case. Besides, the ORAC in data set [2] came to 1.04 ± 0.03 TE. For the same molecule, the CC50 at 24 h in data set [3] is 40000 nM. Also, in data set [4], the “effects on cell viability” value is “no significant effects on cell viability”.
Consider `CCNC(=O)[C@H]1C[C@@](F)(c2ccc(CN3CCCC3)c(F)c2)C1` [PF-03654746], for which the Ki in data set [5] (Table 2, co-crystallized ligand of 7F61, read-out: Ki) was 3.2 nM.
